How the values were obtained:
GSKΔexon9+11 = assay: Inhibition of endogenous Tau [pS396] phosphorylation in COS-7 cells transfected with GSKΔexon9+11 cDNA (ELISA); assay type: cell-based, human
Protocol: Lymphocytes (as described in Example 3) or transfected cells were lysed in 1× Lysis buffer (50 mM Tris.HCl (pH 7.4), 150 mM NaCl, 1 mM PMSF, 1× complete cocktail protease inhibitor (Boehringer Mannheim) and 0.05% Triton X-100. Approximately 2-25 μg of total protein was used to assay for total Tau or Tau phosphorylated at serine residue 396 using the Human Tau or Human Tau [pS396] ELISA kit respectively (Biosource International, CA, USA).
COS-7 cells plated onto 12 well plates at concentration of 1×10^5 cells/well and allowed to recover for 24 hours. Each well was transfected with either the GSKΔexon9 or GSKΔexon9+11 cDNA constructs (as described in Example 4) using Lipofectamine 2000.

[1] = molecular target: Tau (endogenous Tau protein in COS-7 cells); assay: cell-based or functional assay

| levels of Tau [pSer396] by ELISA in COS-7 cells transfected with GSK-3β isoform cDNAs [1] [fold] | Molecule | increase in sensitivity of GSKΔexon9+11 compared with GSKΔexon9 (GSKΔexon9+11; ratio of IC50 values, COS-7 cells) [fold] | suppressing the level of tau phosphorylation in a cell expressing GSK-3β lacking exon 9 and exon 11 vs lacking exon 9 (GSKΔexon9+11; result in words) |
| --- | --- | --- | --- |
|  | Cn1sc(=O)n(Cc2ccccc2)c1=O [TDZD8] | 2 | at a level greater than observed in a cell expressing GSK-3β lacking exon 9 |
| 2.5 | GSK-3β lacking exon 9 and exon 11 (GSKΔexon9+11 isoform) (from UniProt P49841 1-420) |  |  |

— patent US20090041862A1, “Detecting disease association with aberrant glycogen synthase kinase 3beta expression” (priority 2004, published 2009)
